In the NIST ThermoML archive (doi:10.1021/acs.jced.5b00752):
Several values for one entry are separate records, joined by “and”; a condition that tells them apart may be missing. Equal values may be shown once.

Conditions: Closed cell (Static) method

CCOC(=O)c1ccccc1C(=O)OCC [diethyl phthalate]
Liquid
Conditions	vapor or sublimation pressure
312.21 K	0.00032 kPa and 0.00035 kPa
322.21 K	0.00105 kPa and 0.00103 kPa
332.21 K	0.00269 kPa
342.19 K	0.00623 kPa
352.18 K	0.01358 kPa
352.2 K	0.01352 kPa
362.2 K	0.02775 kPa
372.19 K	0.05429 kPa
372.2 K	0.05407 kPa
372.22 K	0.05424 kPa
382.23 K	0.1008 kPa
392.24 K	0.1821 kPa
402.37 K	0.3169 kPa
412.38 K	0.5303 kPa
422.49 K	0.8621 kPa
442.28 K	2.082 kPa
452.12 K	3.099 kPa

CC[N-]C.CC[N-]C.CC[N-]C.CC[N-]C.[Hf+4] [tetrakis(ethylmethylamino)hafnium]
Crystal
Conditions	vapor or sublimation pressure [kPa]
312.19 K	0.00296
322.2 K	0.00715
332.2 K	0.01587
342.18 K	0.03287
352.19 K	0.0644
362.19 K	0.121
372.21 K	0.216
382.21 K	0.37
392.24 K	0.591

c1ccc2ccccc2c1 [naphthalene]
Conditions	vapor or sublimation pressure
312.2 K, Crystal	0.04084 kPa and 0.04083 kPa
317.21 K, Crystal	0.06326 kPa
322.21 K, Crystal	0.09622 kPa
327.21 K, Crystal	0.1447 kPa
332.21 K, Crystal	0.2153 kPa
337.21 K, Crystal	0.315 kPa and 0.3154 kPa
342.19 K, Crystal	0.4556 kPa
347.19 K, Crystal	0.651 kPa
352.19 K, Crystal	0.9213 kPa
357.19 K, Liquid	1.2 kPa
362.2 K, Liquid	1.521 kPa
367.21 K, Liquid	1.915 kPa and 1.914 kPa
372.22 K, Liquid	2.393 kPa
377.22 K, Liquid	2.966 kPa and 2.967 kPa
382.22 K, Liquid	3.657 kPa
387.23 K, Liquid	4.475 kPa and 4.476 kPa
392.24 K, Liquid	5.45 kPa
397.27 K, Liquid	6.593 kPa and 6.596 kPa
402.37 K, Liquid	7.962 kPa
407.32 K, Liquid	9.502 kPa
412.4 K, Liquid	11.33 kPa
422.55 K, Liquid	15.88 kPa
432.58 K, Liquid	21.75 kPa
442.46 K, Liquid	29.18 kPa
452.37 K, Liquid	38.57 kPa

[CH]1C=CC=C1.[CH]1C=CC=C1.[Fe] [ferrocene]
Conditions	vapor or sublimation pressure
312.2 K, Crystal	0.00369 kPa
312.21 K, Crystal	0.00359 kPa
322.21 K, Crystal	0.009 kPa and 0.00911 kPa
332.2 K, Crystal	0.02078 kPa
332.21 K, Crystal	0.02086 kPa and 0.02071 kPa
342.18 K, Crystal	0.04497 kPa and 0.04517 kPa
352.17 K, Crystal	0.0934 kPa [middle of 4 runs]
352.18 K, Crystal	0.09249 kPa and 0.09264 kPa and 0.09328 kPa
352.19 K, Crystal	0.0936 kPa
362.17 K, Crystal	0.1851 kPa and 0.185 kPa
362.18 K, Crystal	0.1854 kPa
372.2 K, Crystal	0.3543 kPa
382.19 K, Crystal	0.6508 kPa
392.2 K, Crystal	1.158 kPa
402.26 K, Crystal	2.001 kPa
402.31 K, Crystal	2.008 kPa
412.24 K, Crystal	3.346 kPa
412.32 K, Crystal	3.361 kPa
422.29 K, Crystal	5.47 kPa
422.4 K, Crystal	5.502 kPa
432.42 K, Crystal	8.756 kPa
442.26 K, Crystal	13.53 kPa
452.08 K, Liquid	19.48 kPa
